Laboratory results as given in patent US20060229265A1, “Nicotinamide riboside and analogues thereof” (priority 2005, published 2006).

Tests used:
Swiss Albino mice = experiment: 7 day repeat dose tolerance study in mice; assay type: in vivo; details: 1000, 500 or 300 mg/kg in PBS, IP, 7 consecutive days; male mice
Experimental: Groups of male Swiss Albino mice (6 mice per dosing group) were dosed with either NMN dissolved in phosphate buffered saline (PBS) at 1000 mg/kg, 500 mg/kg, or 300 mg/kg or vehicle control (PBS) via intraperitoneal injection (IP) for 7 consecutive days. The evaluation criteria used to assess toxicity included daily clinical observations and weight gain.

[1] = Stability in rat plasma / on extraction with organic solvent (LC/MS); assay type: in vitro ADME
Experimental: Duplicate sets of standard curves of triacetoxy nicotinamide riboside, NMN and nicotinamide riboside in rat plasma were extracted by protein precipitation. Due to sensitivities of compounds to the organic solvent used in extraction, two separate extractions were performed on the standards. The standards were extracted with ACN to obtain triacetoxy nicotinamide riboside and nicotinamide riboside standards, and extracted with MeOH to obtain NMN standards. The standards were analyzed through LC/MS. Due to varying chromatographic properties of the compounds, two separate methods and columns were employed to resolve the compounds. The triacetoxy nicotinamide riboside standards (ACN extraction) were run on an YMC ODS-AQ 2.0×100 mm column, while the NMN standards (MeOH extraction) and nicotinamide riboside standards (ACN extraction) were run on an YMC ODS-AQ 4.5×150 mm column. The resolution procedures were as follows: • 50 uL aliquots of each sample were taken in replicates of four. • Added 200 uL of organic solvent to each sample. • Vortexed samples and centrifuged at 5000 g's for 10 minutes. • Transferred supernatant to new tubes (200 uL), and dried down in Speed-Vac. • Reconstituted samples in 200 uL 95:5 ddH2O:ACN, and vortexed 10 minutes on platform vortexer at setting 10. […] Though the curves may be quantitated separately, they cannot be quantitated together. […]

[2] = tested on: retinal ganglion cells (RGCs); experiment: Neuroprotection of retinal ganglion cells in EAE mice with acute optic neuritis (intravitreal treatment); details: for RGC numbers (FG-labeled cells in 12 standardized fields per retina): EAE eyes with optic neuritis; for Neuroprotection for RGCs during acute optic neuritis in EAE: dose-dependent manner
Experimental: Study outline: The neuroprotective effects of nicotinamide riboside were examined in EAE mice with optic neuritis. […] To induce EAE, mice were immunized several days later with 300 μg PLP emulsified in complete Freund's adjuvant (CFA), and control mice (without EAE) were mock-immunized with phosphate buffered saline (PBS) in CFA. All mice received 200 ng intraperitoneal pertussis toxin (PT) on the day of immunization (day 0) and again on day 2.
Eyes were treated with nicotinamide riboside by intravitreal (ivt) injections with a volume of 0.8 μl/injection of a stock solution of either 0.1 M or 0.4 M nicotinamide riboside in PBS (Groups 2, 4 and 5). […] Treament with nicotinamide riboside, as well as PBS control injections, were given ivt on days 0, 4, 7 and 11. Mice were scored daily for clinical EAE, and were sacrificed on day 14 by overdose with ketamine and xylazine.
Retinas were dissected and whole-mounted for fluorescent microscopy. RGC numbers were quantified by counting FG-labeled cells in 12 standardized fields in each retina. Optic nerves were dissected and processed for histology. Cut sections stained by H & E were evaluated for the presence of inflammatory cells to determine acute optic neuritis. RGCs were compared between PBS-treated and nicotinamide riboside-treated eyes with optic neuritis to determine whether nicotinamide riboside prevents loss of neurons.

With `NC(=O)c1ccc[n+]([C@@H]2O[C@H](COP(=O)([O-])O)[C@@H](O)[C@H]2O)c1` [NMN, nicotinamide mononucleotide] the “Clinical signs of toxicity” value (Swiss Albino mice) was “None of the animals showed clinical signs of toxicity” and the “Weight gain by study termination” value (Swiss Albino mice) was “All animals in the study gained weight”.

In the case of `CC(=O)OCC1OC([n+]2cccc(C(N)=O)c2)C(OC(C)=O)C1OC(C)=O` (stereo not shown) [Triacetoxy nicotinamide riboside, triacetoxy nicotinamide riboside], the “Hydrolysis on extraction from rat plasma” value ([1]; extracted with ACN, compared with MeOH) is reported as “less strongly so” and the “Hydrolysis on extraction from rat plasma” value ([1]; extracted with MeOH) is reported as “hydrolyzes into nicotinamide riboside”.

With `NC(=O)c1ccc[n+]([C@@H]2O[C@H](CO)[C@@H](O)[C@H]2O)c1` [nicotinamide riboside] the “RGC numbers (FG-labeled cells in 12 standardized fields per retina)” value ([2]; 100 mM nicotinamide riboside stock, 0.8 μl ivt on days 0, 4, 7, 11 (estimated ocular 19 mM), day 14, Group 4, PBS-treated 268±59, control 691±81) was 505±36 RGCs, the “RGC numbers (FG-labeled cells in 12 standardized fields per retina)” value ([2]; 400 mM nicotinamide riboside stock, 0.8 μl ivt on days 0, 4, 7, 11 (estimated ocular 76 mM), day 14, Group 5, p<0.01) was 710±67 RGCs and the “Incidence of optic neuritis, treated mice vs. controls” value ([2]; EAE mice, ivt treatment) was “did not differ”. The “Inflammatory cell infiltration (optic nerve)” value ([2]; EAE mice, ivt treatment) was “does not prevent”, the “Clinical EAE, treated mice vs. controls” value ([2]; EAE mice, ivt treatment, scored daily) was “did not differ” and the “Neuroprotection for RGCs during acute optic neuritis in EAE” value [2] was “effective”. The “Neuroprotection for RGCs during acute optic neuritis in EAE” value ([2]; listed as Nicotinamide riboside) was “neuroprotective”, the “Toxicity to RGCs” value ([2]; mouse, in vivo) was “not toxic” and the “Difference in RGC numbers between control eyes and non-EAE eyes treated” value ([2]; non-EAE eyes, ivt treatment (Group 2) vs. untreated control (Group 1), day 14) was “no difference”.
